Experiment: The drug is tested on Bifidobacterium longum subsp. Infantis strain: CCUG52486 for biotransformation. The drug concentrations were measured before and after a 12-h incubation by liquid-chromatography-coupled mass spectrometry (LC–MS)
Conditions: 2 µM

Compound	Bacterial Biotransformation
CCOC(=O)C1=C(C)NC(C)=C(C(=O)OC)C1c1cccc([N+](=O)[O-])c1 (stereo not given) [NITRENDIPINE]	Compound metabolized
Clc1ccc(Cn2c(CN3CCCC3)nc3ccccc32)cc1 [CLEMIZOLE]	Compound NOT metabolized
CC(Oc1c(Cl)cccc1Cl)C1=NCCN1 (stereo not given) [LOFEXIDINE]	Compound metabolized

Experiment: The drug is tested on Collinsella aerofaciens strain: ATCC25986 for biotransformation. The drug concentrations were measured before and after a 12-h incubation by liquid-chromatography-coupled mass spectrometry (LC–MS)
Conditions: 2 µM

Compound	Bacterial Biotransformation
CCOC(=O)C1=C(C)NC(C)=C(C(=O)OC)C1c1cccc([N+](=O)[O-])c1 (stereo not given) [NITRENDIPINE]	Compound metabolized
Clc1ccc(Cn2c(CN3CCCC3)nc3ccccc32)cc1 [CLEMIZOLE]	Compound NOT metabolized
CC(Oc1c(Cl)cccc1Cl)C1=NCCN1 (stereo not given) [LOFEXIDINE]	Compound metabolized

Experiment: The drug is tested on Bacteroides caccae strain: ATCC43185 for biotransformation. The drug concentrations were measured before and after a 12-h incubation by liquid-chromatography-coupled mass spectrometry (LC–MS)
Conditions: 2 µM

Compound	Bacterial Biotransformation
CCOC(=O)C1=C(C)NC(C)=C(C(=O)OC)C1c1cccc([N+](=O)[O-])c1 (stereo not given) [NITRENDIPINE]	Compound metabolized
Clc1ccc(Cn2c(CN3CCCC3)nc3ccccc32)cc1 [CLEMIZOLE]	Compound NOT metabolized
CC(Oc1c(Cl)cccc1Cl)C1=NCCN1 (stereo not given) [LOFEXIDINE]	Compound metabolized

Experiment: The drug is tested on Bacteroides finegoldii strain: DSM17565 for biotransformation. The drug concentrations were measured before and after a 12-h incubation by liquid-chromatography-coupled mass spectrometry (LC–MS)
Conditions: 2 µM

Compound	Bacterial Biotransformation
CCOC(=O)C1=C(C)NC(C)=C(C(=O)OC)C1c1cccc([N+](=O)[O-])c1 (stereo not given) [NITRENDIPINE]	Compound metabolized
Clc1ccc(Cn2c(CN3CCCC3)nc3ccccc32)cc1 [CLEMIZOLE]	Compound NOT metabolized
CC(Oc1c(Cl)cccc1Cl)C1=NCCN1 (stereo not given) [LOFEXIDINE]	Compound metabolized

Experiment: The drug is tested on Bacteroides fragilis strain: HMW615 for biotransformation. The drug concentrations were measured before and after a 12-h incubation by liquid-chromatography-coupled mass spectrometry (LC–MS)
Conditions: 2 µM

Compound	Bacterial Biotransformation
CCOC(=O)C1=C(C)NC(C)=C(C(=O)OC)C1c1cccc([N+](=O)[O-])c1 (stereo not given) [NITRENDIPINE]	Compound metabolized
Clc1ccc(Cn2c(CN3CCCC3)nc3ccccc32)cc1 [CLEMIZOLE]	Compound NOT metabolized
CC(Oc1c(Cl)cccc1Cl)C1=NCCN1 (stereo not given) [LOFEXIDINE]	Compound NOT metabolized

Experiment: The drug is tested on Bacteroides fragilis strain: ATCC43859 for biotransformation. The drug concentrations were measured before and after a 12-h incubation by liquid-chromatography-coupled mass spectrometry (LC–MS)
Conditions: 2 µM

Compound	Bacterial Biotransformation
CCOC(=O)C1=C(C)NC(C)=C(C(=O)OC)C1c1cccc([N+](=O)[O-])c1 (stereo not given) [NITRENDIPINE]	Compound metabolized
Clc1ccc(Cn2c(CN3CCCC3)nc3ccccc32)cc1 [CLEMIZOLE]	Compound NOT metabolized
CC(Oc1c(Cl)cccc1Cl)C1=NCCN1 (stereo not given) [LOFEXIDINE]	Compound metabolized

Experiment: The drug is tested on Bacteroides xylanisolvens strain: DSM18836 for biotransformation. The drug concentrations were measured before and after a 12-h incubation by liquid-chromatography-coupled mass spectrometry (LC–MS)
Conditions: 2 µM

Compound	Bacterial Biotransformation
CCOC(=O)C1=C(C)NC(C)=C(C(=O)OC)C1c1cccc([N+](=O)[O-])c1 (stereo not given) [NITRENDIPINE]	Compound metabolized
Clc1ccc(Cn2c(CN3CCCC3)nc3ccccc32)cc1 [CLEMIZOLE]	Compound NOT metabolized
CC(Oc1c(Cl)cccc1Cl)C1=NCCN1 (stereo not given) [LOFEXIDINE]	Compound NOT metabolized

Experiment: The drug is tested on Odoribacter splanchnicus strain: fecal isolate for biotransformation. The drug concentrations were measured before and after a 12-h incubation by liquid-chromatography-coupled mass spectrometry (LC–MS)
Conditions: 2 µM

Compound	Bacterial Biotransformation
CCOC(=O)C1=C(C)NC(C)=C(C(=O)OC)C1c1cccc([N+](=O)[O-])c1 (stereo not given) [NITRENDIPINE]	Compound metabolized
Clc1ccc(Cn2c(CN3CCCC3)nc3ccccc32)cc1 [CLEMIZOLE]	Compound NOT metabolized
CC(Oc1c(Cl)cccc1Cl)C1=NCCN1 (stereo not given) [LOFEXIDINE]	Compound metabolized

Experiment: The drug is tested on Clostridium scindens strain: ATCC35704 for biotransformation. The drug concentrations were measured before and after a 12-h incubation by liquid-chromatography-coupled mass spectrometry (LC–MS)
Conditions: 2 µM

Compound	Bacterial Biotransformation
CCOC(=O)C1=C(C)NC(C)=C(C(=O)OC)C1c1cccc([N+](=O)[O-])c1 (stereo not given) [NITRENDIPINE]	Compound metabolized
Clc1ccc(Cn2c(CN3CCCC3)nc3ccccc32)cc1 [CLEMIZOLE]	Compound NOT metabolized
CC(Oc1c(Cl)cccc1Cl)C1=NCCN1 (stereo not given) [LOFEXIDINE]	Compound metabolized

Experiment: The drug is tested on Clostridium sporogenes strain: ATCC15579 for biotransformation. The drug concentrations were measured before and after a 12-h incubation by liquid-chromatography-coupled mass spectrometry (LC–MS)
Conditions: 2 µM

Compound	Bacterial Biotransformation
CCOC(=O)C1=C(C)NC(C)=C(C(=O)OC)C1c1cccc([N+](=O)[O-])c1 (stereo not given) [NITRENDIPINE]	Compound metabolized
Clc1ccc(Cn2c(CN3CCCC3)nc3ccccc32)cc1 [CLEMIZOLE]	Compound NOT metabolized
CC(Oc1c(Cl)cccc1Cl)C1=NCCN1 (stereo not given) [LOFEXIDINE]	Compound metabolized

Experiment: The drug is tested on Coprococcus comes strain: ATCC27758 for biotransformation. The drug concentrations were measured before and after a 12-h incubation by liquid-chromatography-coupled mass spectrometry (LC–MS)
Format: ADME
Parameters: dose 2 uM, timepoint 0 vs 12 hours
Conditions: 2 µM

Compound	Bacterial Biotransformation
CCOC(=O)C1=C(C)NC(C)=C(C(=O)OC)C1c1cccc([N+](=O)[O-])c1 (stereo not given) [NITRENDIPINE]	Compound metabolized
Clc1ccc(Cn2c(CN3CCCC3)nc3ccccc32)cc1 [CLEMIZOLE]	Compound NOT metabolized
CC(Oc1c(Cl)cccc1Cl)C1=NCCN1 (stereo not given) [LOFEXIDINE]	Compound metabolized

Experiment: The drug is tested on Eubacterium hallii strain: DSM3353 for biotransformation. The drug concentrations were measured before and after a 12-h incubation by liquid-chromatography-coupled mass spectrometry (LC–MS)
Conditions: anaerobutyricum hallii, 2 µM

Compound	Bacterial Biotransformation
CCOC(=O)C1=C(C)NC(C)=C(C(=O)OC)C1c1cccc([N+](=O)[O-])c1 (stereo not given) [NITRENDIPINE]	Compound metabolized
Clc1ccc(Cn2c(CN3CCCC3)nc3ccccc32)cc1 [CLEMIZOLE]	Compound NOT metabolized
CC(Oc1c(Cl)cccc1Cl)C1=NCCN1 (stereo not given) [LOFEXIDINE]	Compound metabolized

Experiment: The drug is tested on Ruminococcus lactaris strain: ATCC29176 for biotransformation. The drug concentrations were measured before and after a 12-h incubation by liquid-chromatography-coupled mass spectrometry (LC–MS)
Conditions: 2 µM

Compound	Bacterial Biotransformation
CCOC(=O)C1=C(C)NC(C)=C(C(=O)OC)C1c1cccc([N+](=O)[O-])c1 (stereo not given) [NITRENDIPINE]	Compound metabolized
Clc1ccc(Cn2c(CN3CCCC3)nc3ccccc32)cc1 [CLEMIZOLE]	Compound NOT metabolized
CC(Oc1c(Cl)cccc1Cl)C1=NCCN1 (stereo not given) [LOFEXIDINE]	Compound metabolized

Experiment: The drug is tested on Enterobacter cancerogenus strain: ATCC35316 for biotransformation. The drug concentrations were measured before and after a 12-h incubation by liquid-chromatography-coupled mass spectrometry (LC–MS)
Conditions: 2 µM

Compound	Bacterial Biotransformation
CCOC(=O)C1=C(C)NC(C)=C(C(=O)OC)C1c1cccc([N+](=O)[O-])c1 (stereo not given) [NITRENDIPINE]	Compound NOT metabolized
Clc1ccc(Cn2c(CN3CCCC3)nc3ccccc32)cc1 [CLEMIZOLE]	Compound NOT metabolized
CC(Oc1c(Cl)cccc1Cl)C1=NCCN1 (stereo not given) [LOFEXIDINE]	Compound metabolized

Experiment: The drug is tested on Providencia rettgeri strain: DSM1131 for biotransformation. The drug concentrations were measured before and after a 12-h incubation by liquid-chromatography-coupled mass spectrometry (LC–MS)
Format: ADME
Parameters: dose 2 uM, timepoint 0 vs 12 hours
Conditions: 2 µM

Compound	Bacterial Biotransformation
CCOC(=O)C1=C(C)NC(C)=C(C(=O)OC)C1c1cccc([N+](=O)[O-])c1 (stereo not given) [NITRENDIPINE]	Compound metabolized
Clc1ccc(Cn2c(CN3CCCC3)nc3ccccc32)cc1 [CLEMIZOLE]	Compound NOT metabolized
CC(Oc1c(Cl)cccc1Cl)C1=NCCN1 (stereo not given) [LOFEXIDINE]	Compound metabolized

Conditions: bacteroides fragilis, 12 h, 2 µM
Description: The drug is tested on Bacteroides fragilis strain: 3397 (T10) for biotransformation. The drug concentrations were measured before and after a 12-h incubation by liquid-chromatography-coupled mass spectrometry (LC–MS)

Compound	Bacterial Biotransformation
CCOC(=O)C1=C(C)NC(C)=C(C(=O)OC)C1c1cccc([N+](=O)[O-])c1 (stereo not given) [NITRENDIPINE]	Compound metabolized
Clc1ccc(Cn2c(CN3CCCC3)nc3ccccc32)cc1 [CLEMIZOLE]	Compound NOT metabolized
CC(Oc1c(Cl)cccc1Cl)C1=NCCN1 (stereo not given) [LOFEXIDINE]	Compound metabolized

Conditions: bacteroides intestinalis, 12 h, 2 µM
Description: The drug is tested on Bacteroides intestinalis strain: DSM17393 for biotransformation. The drug concentrations were measured before and after a 12-h incubation by liquid-chromatography-coupled mass spectrometry (LC–MS)

Compound	Bacterial Biotransformation
CCOC(=O)C1=C(C)NC(C)=C(C(=O)OC)C1c1cccc([N+](=O)[O-])c1 (stereo not given) [NITRENDIPINE]	Compound metabolized
Clc1ccc(Cn2c(CN3CCCC3)nc3ccccc32)cc1 [CLEMIZOLE]	Compound NOT metabolized
CC(Oc1c(Cl)cccc1Cl)C1=NCCN1 (stereo not given) [LOFEXIDINE]	Compound metabolized

Conditions: bacteroides thetaiotaomicron, 12 h, 2 µM
Description: The drug is tested on Bacteroides thetaiotaomicron strain: 3731 for biotransformation. The drug concentrations were measured before and after a 12-h incubation by liquid-chromatography-coupled mass spectrometry (LC–MS)

Compound	Bacterial Biotransformation
CCOC(=O)C1=C(C)NC(C)=C(C(=O)OC)C1c1cccc([N+](=O)[O-])c1 (stereo not given) [NITRENDIPINE]	Compound metabolized
Clc1ccc(Cn2c(CN3CCCC3)nc3ccccc32)cc1 [CLEMIZOLE]	Compound NOT metabolized
CC(Oc1c(Cl)cccc1Cl)C1=NCCN1 (stereo not given) [LOFEXIDINE]	Compound metabolized

Conditions: parabacteroides distasonis, 12 h, 2 µM
Description: The drug is tested on Parabacteroides distasonis strain: ATCC8503 for biotransformation. The drug concentrations were measured before and after a 12-h incubation by liquid-chromatography-coupled mass spectrometry (LC–MS)

Compound	Bacterial Biotransformation
CCOC(=O)C1=C(C)NC(C)=C(C(=O)OC)C1c1cccc([N+](=O)[O-])c1 (stereo not given) [NITRENDIPINE]	Compound metabolized
Clc1ccc(Cn2c(CN3CCCC3)nc3ccccc32)cc1 [CLEMIZOLE]	Compound NOT metabolized
CC(Oc1c(Cl)cccc1Cl)C1=NCCN1 (stereo not given) [LOFEXIDINE]	Compound NOT metabolized

Conditions: anaerostipes sp., 12 h, 2 µM
Description: The drug is tested on Anaerostipes sp. strain: fecal isolate for biotransformation. The drug concentrations were measured before and after a 12-h incubation by liquid-chromatography-coupled mass spectrometry (LC–MS)

Compound	Bacterial Biotransformation
CCOC(=O)C1=C(C)NC(C)=C(C(=O)OC)C1c1cccc([N+](=O)[O-])c1 (stereo not given) [NITRENDIPINE]	Compound metabolized
Clc1ccc(Cn2c(CN3CCCC3)nc3ccccc32)cc1 [CLEMIZOLE]	Compound NOT metabolized
CC(Oc1c(Cl)cccc1Cl)C1=NCCN1 (stereo not given) [LOFEXIDINE]	Compound metabolized
